# Assays:
# [1] = tested on: normal human epithelial cell lines from the skin (TE 353.sk); assay: Proliferation rate (average cell-doubling rate) of normal human skin epithelial cell line in culture; details: 30% D2O based on the complete medium, counted from 48 h then every 24 h for a week, 6 wells
# From the text: (§1) The influence of D2O and H2O on the proliferation rate of carcinoma cells and normal cells was investigated on cell cultures. For this purpose, human TE 354.T epithelial cell lines derived from the human basal-cell carcinoma (American Type Culture Collection (ATCC), Rockville, USA) were used. Normal human epithelial cell lines from the skin of the same individual (TE 353.sk from ATCC) were used as control. The cells were transferred into 96-well cell culture plates (10^4 cells per well) and allowed to grow to subconfluence. The medium used for this purpose was Dulbecco's modified Eagles medium (DMEM) to which 10% heat-deactivated fetal calf serum (LGC Promochem, Wesel, Germany) was added. The medium was changed, for the first time 2 days after introduction of the cells and then every 48 hours. At the subconfluent stage of the cell culture of the two cell lines, 30% D2O, based on the complete medium, was added to the medium. […] From these values, the average cell-doubling rate n was determined from the gradient of a graphical plot of log {cell count} vs. time in accordance with the equation n=3.32 (log Nt−log N0). Here, Nt is the cell count measured after time t, and N0 is the cell count determined at the time when D2O or H2O was added (zero point measurement). The average cell-doubling rate was determined by averaging the results over in each case 6 wells per time point.
# [2] = tested on: human TE 354.T epithelial cell lines derived from the human basal-cell carcinoma; assay: Proliferation rate (average cell-doubling rate) of human basal-cell carcinoma cell line in culture; format: cell-based
# From the text: as §1
structure (smiles),measurement,setting,value
"[2H]O[2H] [D2O, deuterium dioxide]","average cell-doubling rate <n> D2O, normal cells",[1],0.41 ± 0.04
same,reduction in <n> for the carcinoma cells compared with normal cells,"[2]; 30% D2O added to medium, versus H2O",disproportionately large reduction
same,"average cell-doubling rate <n> D2O, carcinoma cells","[2]; 30% D2O based on the complete medium, TE 354.T, counted from 48 h then every 24 h for a week, 6 wells",0.23 ± 0.02
